In ChEMBL document CHEMBL1152333 (J Nat Prod, 2009):
Active and inactive are the calls of the source. The calls are words filed in the database; no cut-off is given here.

Legend:
N2a [1] = assay: Steady state inactivation of Kv potassium channel in 10 sec long prepulse-activated mouse N2A cells followed by further +70 mV pulse stimulation assessed as change in slope factor potential at 30 uM (Rvb=6.4 +/- 1.1 no_unit); type: cell-based
Mus musculus [2] = organism: Mus musculus; assay: Inhibition of Kv potassium channel in mouse N2A assessed as blockade of channel pore at 30 uM in presence of 70 mM intracellular potassium ion; type: cell-based
N2a [3] = assay: Steady state inactivation of Kv potassium channel in -70 mV-activated mouse N2A cells followed by further 10 mV pulse stimulation assessed as reduction in half maximal activation potential at 30 uM (RVb= 10.8 +/- 2.4 mV); type: cell-based
N2a [4] = assay: Inactivation of Kv channel in +30 mV-stimulated mouse N2A cells assessed as decay time constant of inactivated K+ current at 30 uM applied extracellularly (Rvb=1970 +/- 101 ms); type: cell-based
N2a [5] = assay: Steady state inactivation of Kv potassium channel in 10 second long prepulse-activated mouse N2A cells followed by further +70 mV pulse stimulation assessed as reduction in half maximal activation potential at 30 uM (RVb=20.9 +/- 2.1 mV); type: cell-based
N2a [6] = assay: Inhibition of Kv potassium channel in +10 to +70 mV-stimulated mouse N2A cells at 30 uM; type: cell-based
N2a [7] = assay: Inhibition of Kv potassium channel-induced current in mouse N2A cells assessed as left shift of activation curve; type: cell-based
N2a [8] = assay: Steady state inactivation of Kv potassium channel in -70 mV-activated mouse N2A cells followed by further 10 mV pulse stimulation assessed as reduction in half maximal activation potential at 30 uM applied intracellularly (RVb= 10.8 +/- 2.4 mV); type: cell-based
[9] = Inhibition of Kv channel in depolarized mouse N2A cells assessed as inhibition of +30 mV-triggered steady state potassium current flow
N2a [10] = assay: Inactivation of open state of Kv channels in depolarized mouse N2A cells assessed as reduction of +30 mV-stimulated peak current magnitude at 30 uM treated 4 mins before voltage stimulation followed by restimulation with +30 mV pulse every 20 seconds measured after 6 mins relative to control; type: cell-based; set-up: scale not given: the % may be the effect or the level left
N2a [11] = assay: Steady state inactivation of Kv potassium channel in -70 mV-activated mouse N2A cells followed by further 10 mV pulse stimulation assessed as activation slope factor at 30 uM applied intracellularly; type: cell-based
N2a [12] = assay: Inactivation of Kv channel in +30 mV-activated mouse N2A cells followed by further +30 mV pulse stimulation assessed as peak K+ current recovery at 30 uM; type: cell-based
[13] = biological target: Potassium voltage-gated channel subfamily A member 2 (Homo sapiens) (UniProt P16389); assay: Inhibition of Kv1.2 channel expressed in -70 mV-activated HEK293 cells followed by further 10 mV pulse stimulation assessed as slope factor (RVb= 16.3 +/- 1.8 no_unit); type: cell-based
Chain of Potassium voltage-gated channel subfamily A member 2 (Homo sapiens) (P16389 whole entry): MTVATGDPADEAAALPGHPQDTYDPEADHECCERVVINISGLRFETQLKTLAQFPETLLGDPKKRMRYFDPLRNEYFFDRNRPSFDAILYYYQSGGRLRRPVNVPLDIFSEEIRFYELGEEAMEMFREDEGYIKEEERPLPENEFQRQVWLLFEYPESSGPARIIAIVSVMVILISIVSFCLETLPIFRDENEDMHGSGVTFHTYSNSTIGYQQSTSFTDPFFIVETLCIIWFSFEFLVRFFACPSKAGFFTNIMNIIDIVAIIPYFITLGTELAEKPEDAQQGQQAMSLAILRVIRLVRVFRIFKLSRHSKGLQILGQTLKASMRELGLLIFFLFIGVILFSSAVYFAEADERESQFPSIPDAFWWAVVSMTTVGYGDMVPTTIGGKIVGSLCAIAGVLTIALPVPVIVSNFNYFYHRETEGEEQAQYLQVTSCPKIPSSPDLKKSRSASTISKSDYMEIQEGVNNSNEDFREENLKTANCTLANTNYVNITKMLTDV

Mus musculus [14] = organism: Mus musculus; assay: Inhibition of Kv potassium channel in mouse N2A assessed as blockade of channel pore at 10 uM in presence of 140 mM intracellular potassium ion; type: cell-based
N2a [15] = assay: Inactivation of Kv channel in +30 mV-stimulated mouse N2A cells assessed as […] at 30 uM applied extracellularly measured after compound washout (Rvb=1970 +/- 101 ms); type: cell-based
N2a [16] = assay: Inactivation of Kv channel in +30 mV-stimulated mouse N2A cells assessed as decay time constant of inactivated K+ current at 30 uM applied extracellularly measured after compound washout (Rvb=1970 +/- 101 ms); type: cell-based
N2a [17] = assay: Inactivation of Kv channel in +30 mV-stimulated mouse N2A cells assessed as decay time constant of inactivated K+ current at 30 uM via bath application measured after 3 mins (Rvb=1567 +/- 104 ms); type: cell-based
N2a [18] = assay: Steady state inactivation of Kv potassium channel in -70 mV-activated mouse N2A cells followed by further 10 mV pulse stimulation assessed as change in slope factor potential at 30 uM (RVb= 16.1 +/- 1.1 no_unit); type: cell-based
N2a [19] = assay: Inactivation of open state of Kv channel in depolarized mouse N2A cells assessed as change in +30 mV-stimulated peak current at 30 uM treated 4 mins before voltage stimulation relative to control; type: cell-based
N2a [20] = assay: Inhibition of Kv potassium channel in +10 to +70 mV-stimulated mouse N2A cells at 10 uM; type: cell-based
N2a [21] = assay: Inactivation of open state of Kv channel in +30 mV-stimulated mouse N2A cells assessed as peak K+ current recovery at 30 uM treated 4 mins before voltage stimulation followed by restimulation with +30 mV pulse every 20 seconds measured after compound washout; type: cell-based

CC[C@H]1CN2CC[C@]3(C(=O)Nc4ccccc43)[C@@H]2C[C@@H]1/C(=C\OC)C(=O)OC [RHYNCHOPHYLLINE]
Activity (N2a [1]): 3.7
Activity (Mus musculus [2]): inactive
Activity (N2a [3]): -6.5 mV
Activity (N2a [4]): 60.8 ms
Activity (N2a [5]): -34.6 mV
Activity (N2a [6]): Active
Activity (N2a [7]): Active
Activity (N2a [8]): 7.7 mV
IC50 [9]: 7.9 µM
Activity (N2a [10]): 72.5%
Activity (N2a [11]): 11.8
Activity (N2a [12]): inactive
Activity [13]: 19.4
Activity (Mus musculus [14]): inactive
Activity (N2a [15]): 93.3 ms
Activity (N2a [16]): 1900 ms
Activity (N2a [17]): 35 ms
Activity (N2a [18]): 23.2
Activity (N2a [19]): 115%
Activity (N2a [20]): Active
Activity (N2a [21]): 98%
